Key:
[1] = refractive index (Na D-line) (dimensionless); xn = mol fraction of the nth substance listed; settings: 101 kPa, Liquid, Standard Abbe refractometry
[2] = relative permittivity at various frequencies (dimensionless); xn = mol fraction of the nth substance listed; settings: 101 kPa, Liquid, Frequency=1 MHz, Parallel plate capacitor

CCCCCCN [1-hexanamine] + CCCCCO
Settings	refractive index, 293.15 K	refractive index, 298.15 K	refractive index, 303.15 K	relative permittivity, 293.15 K	relative permittivity, 298.15 K	relative permittivity, 303.15 K
[1], x2 = 0	1.41813	1.41563	1.41324	–	–	–
[1], x2 = 0.0472	1.41838	1.41592	1.4136	–	–	–
[1], x2 = 0.1005	1.41862	1.41622	1.41392	–	–	–
[1], x2 = 0.1648	1.41884	1.41649	1.41424	–	–	–
[1], x2 = 0.2022	1.41896	1.4166	1.41438	–	–	–
[1], x2 = 0.3102	1.41908	1.41679	1.41458	–	–	–
[1], x2 = 0.3982	1.41895	1.41671	1.41451	–	–	–
[1], x2 = 0.5002	1.41846	1.41623	1.41407	–	–	–
[1], x2 = 0.6005	1.41756	1.41543	1.41329	–	–	–
[1], x2 = 0.7122	1.41609	1.41403	1.41193	–	–	–
[1], x2 = 0.7963	1.41463	1.41259	1.41054	–	–	–
[1], x2 = 0.8457	1.41364	1.41164	1.40958	–	–	–
[1], x2 = 0.8982	1.41246	1.41048	1.40844	–	–	–
[1], x2 = 0.9362	1.41153	1.40957	1.40754	–	–	–
[2], x2 = 0	–	–	–	3.967	3.905	3.846
[2], x2 = 0.052	–	–	–	4.248	4.176	4.11
[2], x2 = 0.1079	–	–	–	4.563	4.485	4.408
[2], x2 = 0.1601	–	–	–	4.876	4.785	4.701
[2], x2 = 0.2014	–	–	–	5.146	5.047	4.957
[2], x2 = 0.31	–	–	–	5.924	5.796	5.675
[2], x2 = 0.3982	–	–	–	6.653	6.494	6.348
[2], x2 = 0.5031	–	–	–	7.689	7.486	7.298
[2], x2 = 0.6013	–	–	–	8.827	8.567	8.319
[2], x2 = 0.6916	–	–	–	10.025	9.702	9.397
[2], x2 = 0.7952	–	–	–	11.649	11.246	10.864
[2], x2 = 0.8396	–	–	–	12.419	11.973	11.555
[2], x2 = 0.9006	–	–	–	13.582	13.084	12.61
[2], x2 = 0.9431	–	–	–	14.457	13.913	13.397

CCCCCCN [1-hexanamine] + CCCO
Settings	refractive index, 293.15 K	refractive index, 298.15 K	refractive index, 303.15 K	relative permittivity, 293.15 K	relative permittivity, 298.15 K	relative permittivity, 303.15 K
[1], x2 = 0	1.41808	1.41563	1.41321	–	–	–
[1], x2 = 0.052	1.41775	1.41529	1.41292	–	–	–
[1], x2 = 0.1015	1.41735	1.41492	1.41258	–	–	–
[1], x2 = 0.1475	1.41693	1.41452	1.41223	–	–	–
[1], x2 = 0.2108	1.41627	1.41393	1.4116	–	–	–
[1], x2 = 0.2983	1.41509	1.41276	1.41049	–	–	–
[1], x2 = 0.3967	1.41351	1.4112	1.40878	–	–	–
[1], x2 = 0.4998	1.41113	1.40876	1.40642	–	–	–
[1], x2 = 0.604	1.40784	1.40551	1.40323	–	–	–
[1], x2 = 0.6965	1.40408	1.40199	1.39964	–	–	–
[1], x2 = 0.8013	1.39877	1.39675	1.39454	–	–	–
[1], x2 = 0.8505	1.39588	1.39373	1.39168	–	–	–
[1], x2 = 0.8953	1.39295	1.39085	1.38884	–	–	–
[1], x2 = 0.9486	1.38914	1.38704	1.38505	–	–	–
[2], x2 = 0	–	–	–	3.964	3.904	3.846
[2], x2 = 0.0708	–	–	–	4.411	4.336	4.263
[2], x2 = 0.1073	–	–	–	4.663	4.578	4.499
[2], x2 = 0.147	–	–	–	4.953	4.857	4.77
[2], x2 = 0.1935	–	–	–	5.33	5.222	5.123
[2], x2 = 0.307	–	–	–	6.436	6.286	6.148
[2], x2 = 0.3941	–	–	–	7.471	7.279	7.102
[2], x2 = 0.5056	–	–	–	9.113	8.85	8.605
[2], x2 = 0.6097	–	–	–	10.99	10.649	10.324
[2], x2 = 0.6977	–	–	–	12.847	12.426	12.034
[2], x2 = 0.8044	–	–	–	15.469	14.948	14.463
[2], x2 = 0.8406	–	–	–	16.431	15.885	15.354
[2], x2 = 0.8989	–	–	–	18.08	17.478	16.902
[2], x2 = 0.9504	–	–	–	19.605	18.955	18.33
